IC50 data for 8 compounds are collected here from patent publication US10040781B2, “Tank-binding kinase inhibitor compounds” (Gilead Sciences, Inc., priority 2014, dated 2018).

The target of one assay is hJAK2 (Homo sapiens (Human), UniProt O60674). The experiment in a line: hJAK2 LANCE TR-FRET enzymatic assay. The settings on record: read-out: JAK2 IC50. The format is biochemical. (In general: Time-resolved FRET reads energy transfer from a long-lived donor to a nearby acceptor.)
The target of the next assay is IKKε (Homo sapiens (Human), UniProt Q14164). In words: IKKε TR-FRET enzymatic assay. The format is biochemical. Conditions: read-out: IKKe IC50.
IKKε, sequence (Q14164 whole entry): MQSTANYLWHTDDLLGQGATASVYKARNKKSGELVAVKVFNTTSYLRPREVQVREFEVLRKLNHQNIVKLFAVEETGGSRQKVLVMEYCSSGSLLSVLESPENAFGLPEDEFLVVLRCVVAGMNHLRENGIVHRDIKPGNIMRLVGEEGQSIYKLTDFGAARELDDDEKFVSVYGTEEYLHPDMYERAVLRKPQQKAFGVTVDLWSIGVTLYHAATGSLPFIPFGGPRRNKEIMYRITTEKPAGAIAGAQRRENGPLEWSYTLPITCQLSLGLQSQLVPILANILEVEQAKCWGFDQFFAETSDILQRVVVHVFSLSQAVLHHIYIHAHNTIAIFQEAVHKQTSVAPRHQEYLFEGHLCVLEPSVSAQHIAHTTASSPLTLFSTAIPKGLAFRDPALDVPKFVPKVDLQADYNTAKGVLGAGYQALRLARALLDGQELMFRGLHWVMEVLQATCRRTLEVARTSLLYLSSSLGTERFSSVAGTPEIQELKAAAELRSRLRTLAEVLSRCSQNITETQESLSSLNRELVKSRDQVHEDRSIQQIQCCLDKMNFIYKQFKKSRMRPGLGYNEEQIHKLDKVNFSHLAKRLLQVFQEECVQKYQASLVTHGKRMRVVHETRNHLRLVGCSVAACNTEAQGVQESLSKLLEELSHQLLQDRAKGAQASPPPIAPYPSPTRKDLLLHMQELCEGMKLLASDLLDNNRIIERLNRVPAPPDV
The next assay has as its target TBK1 (Homo sapiens (Human), UniProt Q9UHD2). In words: TBK1 TR-FRET enzymatic assay.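 Also: phosphorylation of a biotinylated Ser/Thr peptide by purified full-length recombinant TBK1, read by TR-FRET after 240 min at 25 °C, IC50 is the geometric mean of at least four runs.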

As usually defined, the IC50 is the midpoint of a concentration-inhibition curve.

hJAK2, sequence (O60674 whole entry): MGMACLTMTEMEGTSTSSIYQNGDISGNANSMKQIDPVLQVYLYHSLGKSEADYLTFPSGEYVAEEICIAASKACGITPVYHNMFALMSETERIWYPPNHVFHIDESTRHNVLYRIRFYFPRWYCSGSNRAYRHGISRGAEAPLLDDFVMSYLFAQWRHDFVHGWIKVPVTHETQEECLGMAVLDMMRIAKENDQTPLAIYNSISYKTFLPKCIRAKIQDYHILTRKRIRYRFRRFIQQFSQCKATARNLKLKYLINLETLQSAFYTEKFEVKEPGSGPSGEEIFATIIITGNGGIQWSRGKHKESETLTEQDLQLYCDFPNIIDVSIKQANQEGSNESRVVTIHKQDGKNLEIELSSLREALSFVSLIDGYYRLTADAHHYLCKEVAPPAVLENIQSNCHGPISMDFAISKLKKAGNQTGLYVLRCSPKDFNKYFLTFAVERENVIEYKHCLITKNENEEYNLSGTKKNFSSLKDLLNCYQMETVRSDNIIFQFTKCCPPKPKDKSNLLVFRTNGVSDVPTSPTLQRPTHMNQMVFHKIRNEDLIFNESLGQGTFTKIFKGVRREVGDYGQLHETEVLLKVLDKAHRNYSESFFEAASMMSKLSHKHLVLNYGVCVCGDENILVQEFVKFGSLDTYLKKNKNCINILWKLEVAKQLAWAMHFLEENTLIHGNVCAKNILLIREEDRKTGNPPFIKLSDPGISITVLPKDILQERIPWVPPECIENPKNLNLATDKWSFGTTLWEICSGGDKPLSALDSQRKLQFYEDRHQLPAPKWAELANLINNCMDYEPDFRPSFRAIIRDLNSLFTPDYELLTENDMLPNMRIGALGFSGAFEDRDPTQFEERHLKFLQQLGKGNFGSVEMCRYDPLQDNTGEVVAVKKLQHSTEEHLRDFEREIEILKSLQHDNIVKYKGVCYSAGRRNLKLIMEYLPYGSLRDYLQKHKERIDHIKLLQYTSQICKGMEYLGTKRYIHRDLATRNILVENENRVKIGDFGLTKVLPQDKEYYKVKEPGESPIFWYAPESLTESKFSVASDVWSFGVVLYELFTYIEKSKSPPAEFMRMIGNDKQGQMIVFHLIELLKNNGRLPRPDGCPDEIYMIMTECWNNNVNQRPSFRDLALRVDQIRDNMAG
TBK1, sequence (Q9UHD2 whole entry): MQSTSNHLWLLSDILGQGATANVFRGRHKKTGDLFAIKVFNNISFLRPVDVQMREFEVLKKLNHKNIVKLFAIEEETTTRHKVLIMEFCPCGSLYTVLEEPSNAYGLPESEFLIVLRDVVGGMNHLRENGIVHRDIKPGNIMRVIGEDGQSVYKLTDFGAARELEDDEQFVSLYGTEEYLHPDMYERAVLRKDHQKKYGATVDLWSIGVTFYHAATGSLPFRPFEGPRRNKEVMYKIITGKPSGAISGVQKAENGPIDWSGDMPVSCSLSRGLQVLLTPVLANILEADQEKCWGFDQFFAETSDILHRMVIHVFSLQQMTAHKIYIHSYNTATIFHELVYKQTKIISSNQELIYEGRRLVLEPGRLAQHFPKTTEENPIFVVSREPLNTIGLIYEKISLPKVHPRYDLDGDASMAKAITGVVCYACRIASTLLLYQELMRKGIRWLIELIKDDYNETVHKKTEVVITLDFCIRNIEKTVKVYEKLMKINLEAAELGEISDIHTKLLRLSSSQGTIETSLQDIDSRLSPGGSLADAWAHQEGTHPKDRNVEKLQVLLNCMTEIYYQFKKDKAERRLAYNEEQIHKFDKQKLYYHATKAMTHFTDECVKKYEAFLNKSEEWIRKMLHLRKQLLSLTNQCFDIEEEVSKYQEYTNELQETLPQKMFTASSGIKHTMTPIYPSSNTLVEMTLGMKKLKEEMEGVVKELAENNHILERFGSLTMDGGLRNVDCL
Experimental for TBK1: Enzymatic activity of IKKε and TBK1 was measured using a homogeneous time resolved fluorescence resonance energy transfer (TR-FRET) assay that monitors enzyme dependent phosphorylation of a biotinylated serine/threonine peptide substrate. […] TBK1 and IKKε were expressed and purified as full length recombinant proteins. Detection reagents for the assay were purchased from Cisbio. […] After an assay reaction time of 240 minutes at 25° C., reactions were terminated with EDTA.
All IC50 values represent geometric mean values of a minimum of four determinations.

Consider `N#Cc1cc(-c2ncnc(Nc3ccc(N4CCN(C5COC5)CC4)cc3)n2)ccc1OCC1CNC(=O)O1` (stereo not drawn) [Example 607, 5-(4-((4-(4-(oxetan-3-yl)piperazin-1-yl)phenyl)amino)-1,3,5-triazin-2-yl)-2-((2-oxooxazolidin-5-yl)methoxy)benzonitrile], for which the results for the IC50 on hJAK2, at IKKε and against TBK1 were 161 nM, 16 nM and 21 nM, respectively.
Take `N#Cc1cc(-c2ncnc(Nc3ccc(N4CCN(C5COC5)CC4)cc3)n2)ccc1OCCN1CCNC(=O)C1` [Example 608, 5-(4-((4-(4-(oxetan-3-yl)piperazin-1-yl)phenyl)amino)-1,3,5-triazin-2-yl)-2-(2-(3-oxopiperazin-1-yl)ethoxy)benzonitrile]: the IC50 was no less than 1000 nM on hJAK2, no less than 1000 nM on IKKε and 662 nM against TBK1.
For `Cc1cc(C)n(CCOc2ccc(-c3ncnc(Nc4ccc(N5CCN(C6COC6)CC5)cc4)n3)cc2C#N)n1` [Example 609, 2-(2-(3,5-dimethyl-1H-pyrazol-1-yl)ethoxy)-5-(4-((4-(4-(oxetan-3-yl)piperazin-1-yl)phenyl)amino)-1,3,5-triazin-2-yl)benzonitrile], the IC50 on hJAK2 is 237 nM; at IKKε, no less than 1000 nM; on TBK1 it was 1000 nM.
In the case of `N#Cc1cc(-c2ncnc(Nc3ccc(N4CCN(C5COC5)CC4)cc3)n2)ccc1O[C@H]1CCN(c2cccnc2)C[C@H]1F` [Example 611, 2-(((3R,4S)-3-fluoro-1-(pyridin-3-yl)piperidin-4-yl)oxy)-5-(4-((4-(4-(oxetan-3-yl)piperazin-1-yl)phenyl)amino)-1,3,5-triazin-2-yl)benzonitrile], the IC50 was no less than 1000 nM on hJAK2, no less than 1000 nM at IKKε and 1000 nM against TBK1.
As for `Cc1noc(C(=O)N2CC[C@H](Oc3ccc(-c4ncnc(Nc5ccc(N6CCN(C7COC7)CC6)cc5)n4)cc3C#N)[C@H](F)C2)n1` [Example 612, 2-(((3R,4S)-3-fluoro-1-(3-methyl-1,2,4-oxadiazole-5-carbonyl)piperidin-4-yl)oxy)-5-(4-((4-(4-(oxetan-3-yl)piperazin-1-yl)phenyl)amino)-1,3,5-triazin-2-yl)benzonitrile], the results for the IC50 on hJAK2, at IKKε and against TBK1 were 607 nM, 2 nM and 3 nM, respectively.
As for `C[C@H](O)C(=O)N1CC[C@H](Nc2ccc(-c3ncnc(Nc4ccc(N5CCN(C6COC6)CC5)cc4)n3)cc2C#N)[C@H](F)C1` [Example 613, 2-(((3R,4S)-3-fluoro-1-((S)-2-hydroxypropanoyl)piperidin-4-yl)amino)-5-(4-((4-(4-(oxetan-3-yl)piperazin-1-yl)phenyl)amino)-1,3,5-triazin-2-yl)benzonitrile], the half-inhibitory concentration (IC50) at hJAK2 came out at 69 nM; at IKKε, 175 nM; at TBK1, 128 nM.
As for `N#Cc1cc(-c2ncnc(Nc3ccc(N4CCN(C5COC5)CC4)cc3)n2)ccc1O[C@H]1CCN(C(=O)C2(O)CNC2)C[C@H]1F` [Example 614, 2-(((3R,4S)-3-fluoro-1-(3-hydroxyazetidine-3-carbonyl)piperidin-4-yl)oxy)-5-(4-((4-(4-(oxetan-3-yl)piperazin-1-yl)phenyl)amino)-1,3,5-triazin-2-yl)benzonitrile], the IC50 on hJAK2 was found to be 268 nM; on IKKε, 45 nM; against TBK1, 25 nM.
On to `C[C@H](O)C(=O)N1CC[C@H](Oc2ccc(-c3ncnc(Nc4ccc([C@H]5CCCN5)cc4)n3)cc2C#N)[C@H](F)C1` [Example 615, 2-(((3R,4S)-3-fluoro-1-((S)-2-hydroxypropanoyl)piperidin-4-yl)oxy)-5-(4-((4-((R)-pyrrolidin-2-yl)phenyl)amino)-1,3,5-triazin-2-yl)benzonitrile], for which the figures for the IC50 on hJAK2, at IKKε and against TBK1 were no less than 1000 nM, 1 nM and 4 nM, respectively.
